From article PMC7725843, “Structural and biochemical analyses of an aminoglycoside 2′-N-acetyltransferase from Mycolicibacterium smegmatis” (Scientific Reports, 2020)

How the values were obtained:
[1] = molecular target: T1, AAC(2′)-Id (Mycolicibacterium smegmatis, UniProt P94968); experiment: DTNB assay of CoA release at […] nm, Michaelis-Menten fit; assay type: biochemical; settings: 300 μM acetyl-CoA, 50 mM MES pH 6.5, 200 μM DTNB, 25 °C
T1 construct: full-length ORF (630 bp), codon-optimised synthetic gene in pET-28a(+), E. coli BL21(DE3); N-terminal His-tag cut with thrombin; homodimer
T1 sequence (P94968 whole entry): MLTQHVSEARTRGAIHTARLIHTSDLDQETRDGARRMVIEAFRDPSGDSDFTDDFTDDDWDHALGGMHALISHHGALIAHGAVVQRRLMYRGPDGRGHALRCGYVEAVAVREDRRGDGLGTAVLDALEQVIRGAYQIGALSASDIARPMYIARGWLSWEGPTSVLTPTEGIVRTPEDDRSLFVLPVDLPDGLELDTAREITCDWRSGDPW

[2] = molecular target: T1, AAC(2′)-Id; experiment: X-ray crystal structure; assay type: binding; settings: ternary complexes with gentamicin, sisomicin, neomycin or paromomycin; 5 mM CoA

Structure (SMILES)	Km (μM) [1]	X-ray crystal structure [2]
CN[C@@H]1[C@@H](O)[C@@H](O[C@@H]2[C@@H](O)[C@H](O[C@H]3OC(CN)=CC[C@H]3N)[C@@H](N)C[C@H]2N)OC[C@]1(C)O [Sisomicin]	(7.30 ± 0.58) × 10 μM	
CC(C)(COP(=O)(O)OP(=O)(O)OC[C@H]1O[C@@H](n2cnc3c(N)ncnc32)[C@H](O)[C@@H]1OP(=O)(O)O)[C@@H](O)C(=O)NCCC(=O)NCCS [CoA]		chain B contains only a CoA molecule
